Results published in patent US10323051B2, “Methods for controlling depolymerization of polymer compositions” (RHODIA OPERATIONS, priority 2011, dated 2019).
Where two headings read alike, the source gives them in different places.

Key:
[1] = Viscosity of THPS-(1%) polyacrylamide aqueous dispersion (OFITE viscometer, 300 rpm); type: physicochemical; details: for viscosity @300 rpm (shear rate 500 s-1) after 60 minutes / viscosity @300 rpm after 60 minutes: 1% polyacrylamide; for effect on depolymerization: polyacrylamide with THPS under aerobic conditions at acidic pH, inhibitor added; for viscosity @300 rpm after 60 minutes: no depolymerization inhibitor
[2] = Molecular weight determination of polymer in the presence of THPS by GPC with light scattering detection; type: physicochemical; details: for Mn / Mw / Polydispersity (Mw/Mn): 75 ppm THPS, 1% pol A, overnight at ambient temperature
[3] = guar or guar derivatives mixed with THPS at 10-1000 ppm
Experimental: The polymer(s) under investigation were weighed and dissolved in (deionized) DI water to attain a desired concentration (for example, 0.48% w/w guar, 1.0% w/w polyacrylamide). The solution was mixed thoroughly for 1 h to ensure that the polymer had fully or substantially dissolved and the polymer fully hydrated
The polymer solution as prepared above was placed in a 250 ml beaker. Viscosity was measured with an OFITE viscometer (model 900). Initial viscosity was recorded (300 rpm) (at 500 s^−1) and then an acetic acid/sodium acetate buffer added to achieve a total concentration in the polymer solution of 0.2% w/w. pH and viscosity were recorded and then the depolymerization inhibitor was added. THPS at the concentration being investigated was then added. Viscosity measurements were then made at various time intervals as recorded in the table of FIG. 1.

Which results are given for `O=C1O[C@H]([C@@H](O)CO)C(O)=C1O` [ascorbic acid]?
viscosity @300 rpm (shear rate 500 s-1) after 60 minutes ([1]; 75 ppm THPS with 100 ppm ascorbic acid (rerun), initial viscosity 27.5 cP): 25.9 cP; viscosity @300 rpm (shear rate 500 s-1) after 60 minutes ([1]; 75 ppm THPS with 200 ppm ascorbic acid, initial viscosity 27.5 cP): 24.5 cP; effect on depolymerization [1]: the depolymerization is controlled or stopped; Mn ([2]; 1 ppm ascorbic acid): 1,460,000 g/mol; Mw ([2]; 1 ppm ascorbic acid): 1,770,000 g/mol; Polydispersity (Mw/Mn) ([2]; 1 ppm ascorbic acid): 1.22; Mn ([2]; 10 ppm ascorbic acid): 1,480,000 g/mol; Mw ([2]; 10 ppm ascorbic acid): 1,840,000 g/mol; Polydispersity (Mw/Mn) ([2]; 10 ppm ascorbic acid): 1.25; Mn ([2]; 50 ppm ascorbic acid): 1,590,000 g/mol; Mw ([2]; 50 ppm ascorbic acid): 1,890,000 g/mol; Polydispersity (Mw/Mn) ([2]; 50 ppm ascorbic acid): 1.19

Which “viscosity @300 rpm (shear rate 500 s-1) after 60 minutes” value ([1]; 75 ppm THPS with 25 ppm hydroquinone, initial viscosity 23.8 cP) does the source give for `Oc1ccc(O)cc1` [hydroquinone] here?
The value was 14.6 cP.

And the “viscosity @300 rpm (shear rate 500 s-1) after 60 minutes” value ([1]; 75 ppm THPS with 50 ppm hydroquinone, initial viscosity 25.1 cP)?
Its value is 17.1 cP.

What about the effect on depolymerization [1] of the same compound?
The effect on depolymerization was “the depolymerization is controlled or stopped”.

Which results are given for “tetrakis(hydroxymethyl)phosphonium sulfate [THPS, reference compound]”?
viscosity @300 rpm after 60 minutes ([1]; 50 ppm THPS, initial viscosity 23.8 cP): 9.7 cP; viscosity @300 rpm after 60 minutes ([1]; 75 ppm THPS, initial viscosity 23.8 cP): 7.3 cP; viscosity @300 rpm after 60 minutes ([1]; 100 ppm THPS, initial viscosity 23.8 cP): 3.9 cP; viscosity @300 rpm after 60 minutes ([1]; 125 ppm THPS, initial viscosity 23.8 cP): 2 cP; effect on viscosity and molecular weight ([1]; polyacrylamide or polyacrylamide-co-acrylic acid solutions mixed with THPS at 50-1000 ppm): reduction in viscosity along with a corresponding molecular weight reduction; Mn ([2]; no inhibitor): 652,000 g/mol; Mw ([2]; no inhibitor): 812,000 g/mol; Polydispersity (Mw/Mn) ([2]; no inhibitor): 1.25; Mw of THPS/polymer solution without an inhibitor relative to Mw with an inhibitor ([2]; after being left overnight): approximately half; effect on viscosity and molecular weight [3]: reduction in viscosity of the application fluid along with a corresponding molecular weight reduction
